Source: patent US6756382B2, “Amide substituted imidazoquinolines” (3M Innovative Properties Company, priority 1999, dated 2004)

Key:
[1] = system: interferon (α); assay: Cytokine induction in human cells: interferon secreted by PBMCs, ELISA; type: cell-based; conditions: PBMC, incubated 18 to 24 hours, interferon determined by ELISA, read-out: Lowest Effective Concentration (μM) Interferon
Excerpt: (§1) An in vitro human blood cell system was used to assess cytokine induction by compounds of the invention. Activity is based on the measurement of interferon and tumor necrosis factor (α) (IFN and TNF, respectively) secreted into culture media as described by Testerman et. al. In “Cytokine Induction by the Immunomodulators Imiquimod and S-27609”, Journal of Leukocyte Biology, 58, 365-372 (September, 1995).
(§2) Whole blood is collected by venipuncture into EDTA vacutainer tubes from healthy human donors. Peripheral blood mononuclear cells (PBMCs) are separated from whole blood by density gradient centrifugation using Histopaque®-1077 (Sigma Chemicals, St. Louis, Mo.). The PBMCs are suspended at 3-4×10^6 cells/mL in RPMI 1640 medium containing 10% fetal bovine serum, 2 mM L-glutamine and 1% penicillin/streptomycin solution (RPMI complete). The PBMC suspension is added to 48 well flat bottom sterile tissue culture plates (Costar, Cambridge, Mass. or Becton Dickinson Labware, Lincoln Park, N.J.) containing an equal volume of RPMI complete media containing test compound.
(§3) The compounds are solubilized in dimethyl sulfoxide (DMSO). The DMSO concentration should not exceed a final concentration of 1% for addition to the culture wells.
(§4) The solution of test compound is added at 60 μM to the first well containing RPMI complete and serial (three fold or ten fold) dilutions are made. The PBMC suspension is then added to the wells in an equal volume, bringing the test compound concentrations to the desired range. The final concentration of PBMC suspension is 1.5-2×10^6 cells/mL. The plates are covered with sterile plastic lids, mixed gently and then incubated for 18 to 24 hours at 37° C. in a 5% carbon dioxide atmosphere.
(§5) Following incubation the plates are centrifuged for 5-10 minutes at 1000 rpm (˜200×g) at 4° C. The cell culture supernatant is removed with a sterile polypropylene pipet and transferred to sterile polypropylene tubes. Samples are maintained at −30 to −70° C. until analysis. The samples are analyzed for interferon (α) by either ELISA or bioassay and for tumor necrosis factor (α) by ELISA.
Interferon (α) concentration is determined by ELISA using a Human Multi-Species kit from PBL Biomedical Laboratories, New Brunswick, N.J.
(§6) The table below lists the lowest concentration found to induce interferon and the lowest concentration found to induce tumor necrosis factor for each compound. […] Unless otherwise indicated, the interferon biosynthesis was determined by ELISA.

[2] = system: tumor necrosis factor (α); assay: Cytokine induction in human cells: tumor necrosis factor (α) secreted by PBMCs, ELISA; type: cell-based; conditions: PBMC, incubated 18 to 24 hours, TNF determined by ELISA, read-out: Lowest Effective Concentration (μM) Tumor Necrosis Factor
Excerpt: as §1, §2, §3, §4, §5
Tumor necrosis factor (α) (TNF)concentration is determined using ELISA kits available from Genzyme, Cambridge, Mass.; R&D Systems, Minneapolis, Minn.; or Pharmingen, San Diego, Calif.
as §6

With `COC(=O)CCCCC(=O)NCCCCn1cnc2c(N)nc3ccccc3c21` [Example 95] the minimal effective concentration [1] was 3.33 µM and the minimal effective concentration [2] was 30 µM.
`Nc1nc2ccccc2c2c1ncn2CCCCNC(=O)c1ccc([N+](=O)[O-])o1` [Example 96] gave a minimal effective concentration [1] of 0.37 µM and a minimal effective concentration [2] of 10 µM.
`Nc1nc2ccccc2c2c1ncn2CCCCNC(=O)c1cccnc1Cl` [Example 97] gave a minimal effective concentration [1] of 0.12 µM and a minimal effective concentration [2] of 3.33 µM.
With `COc1ccc(CC(=O)NCCCCn2cnc3c(N)nc4ccccc4c32)cc1` [Example 98] the minimal effective concentration [1] was 1.11 µM and the minimal effective concentration [2] was 10 µM.
With `Nc1nc2ccccc2c2c1ncn2CCCCNC(=O)CC1CCCC1` [Example 99] the minimal effective concentration [1] was 0.37 µM and the minimal effective concentration [2] was 3.33 µM.
Work on `COC(=O)c1ccc(C(=O)NCCCCn2cnc3c(N)nc4ccccc4c32)cc1` [Example 100] yielded a minimal effective concentration [1] of 10 µM and a minimal effective concentration [2] of 3.33 µM.
`COC(=O)CCCCCCCCC(=O)NCCCCn1cnc2c(N)nc3ccccc3c21` [Example 101] gave a minimal effective concentration [1] of 3.33 µM and a minimal effective concentration [2] greater than 30 µM.
With `Nc1nc2ccccc2c2c1ncn2CCCCNC(=O)c1ccc(OC(F)(F)F)cc1` [Example 102] the minimal effective concentration [1] was 3.33 µM and the minimal effective concentration [2] was greater than 30 µM.
`Nc1nc2ccccc2c2c1ncn2CCCCNC(=O)c1ccc(CN2CCOCC2)cc1` [Example 103] showed a minimal effective concentration [1] of 0.37 µM and a minimal effective concentration [2] of 10 µM.
For `Nc1nc2ccccc2c2c1ncn2CCCCNC(=O)c1ccc(CN2CCN(C(c3ccccc3)c3ccccc3)CC2)cc1` [Example 104], the minimal effective concentration [1] was greater than 30 µM and the minimal effective concentration [2] was greater than 30 µM.
`Nc1nc2ccccc2c2c1ncn2CCCCNC(=O)c1ccc(CNCc2ccncc2)cc1` [Example 105] gave a minimal effective concentration [1] of 0.12 µM and a minimal effective concentration [2] of 10 µM.
Work on `COc1ccccc1CCNCc1ccc(C(=O)NCCCCn2cnc3c(N)nc4ccccc4c32)cc1` [Example 106] yielded a minimal effective concentration [1] of 3.33 µM and a minimal effective concentration [2] greater than 30 µM.
`CN(CCc1ccccn1)Cc1ccc(C(=O)NCCCCn2cnc3c(N)nc4ccccc4c32)cc1` [Example 107] gave a minimal effective concentration [1] of 0.12 µM and a minimal effective concentration [2] of 10 µM.
`Nc1nc2ccccc2c2c1ncn2CCCCNC(=O)Cc1cccs1` [Example 108, N^1-(4-(4-Amino-1H-imidazo[4,5-c]quinolin-1-yl)butyl)-2-(2-thienyl)acetamide] was tested, and the minimal effective concentration [1] was 0.12 µM and the minimal effective concentration [2] was 10 µM.
`Nc1nc2ccccc2c2c1ncn2CCCCNC(=O)CC(c1ccccc1)c1ccccc1` [Example 109] gave a minimal effective concentration [1] greater than 30 µM and a minimal effective concentration [2] greater than 30 µM.
Work on `Nc1nc2ccccc2c2c1ncn2CCCCNC(=O)CC1C=CCC1` (stereo not shown) [Example 110] yielded a minimal effective concentration [1] of 1.11 µM and a minimal effective concentration [2] of 3.33 µM.
In the case of `Nc1nc2ccccc2c2c1ncn2CCCCNC(=O)c1cc(Cl)cc(Cl)c1` [Example 111], the minimal effective concentration [1] is reported as 1.11 µM and the minimal effective concentration [2] is reported as greater than 30 µM.
`N#CCC(=O)NCCCCn1cnc2c(N)nc3ccccc3c21` [Example 112] gave a minimal effective concentration [1] of 10 µM and a minimal effective concentration [2] greater than 30 µM.
`COC(=O)CCC(=O)NCCCCn1cnc2c(N)nc3ccccc3c21` [Example 113] gave a minimal effective concentration [1] of 3.33 µM and a minimal effective concentration [2] greater than 30 µM.
Molecule `C#CCCC(=O)NCCCCn1cnc2c(N)nc3ccccc3c21` [Example 115] has a minimal effective concentration [1] of 1.11 µM and a minimal effective concentration [2] of 30 µM.
For `C=CCCC(=O)NCCCCn1cnc2c(N)nc3ccccc3c21` [Example 116], the minimal effective concentration [1] was 0.37 µM and the minimal effective concentration [2] was 10 µM.
Molecule `COC(=O)CCCC(=O)NCCCCn1cnc2c(N)nc3ccccc3c21` [Example 117] has a minimal effective concentration [1] of 3.33 µM and a minimal effective concentration [2] greater than 30 µM.
Work on `CC(=O)CCCC(=O)NCCCCn1cnc2c(N)nc3ccccc3c21` [Example 118] yielded a minimal effective concentration [1] of 1.11 µM and a minimal effective concentration [2] greater than 30 µM.
With `C#CCCCCCCCCC(=O)NCCCCn1cnc2c(N)nc3ccccc3c21` [Example 119] the minimal effective concentration [1] was greater than 30 µM and the minimal effective concentration [2] was greater than 30 µM.
In the case of `COc1ccc(CN(CCCCn2cnc3c(N)nc4ccccc4c32)C(C)=O)cc1` [Example 120], the minimal effective concentration [1] is reported as 0.37 µM and the minimal effective concentration [2] is reported as greater than 30 µM.
`CC(=O)N(CCCCn1cnc2c(N)nc3ccccc3c21)Cc1ccc(Br)cc1` [Example 121] was tested, and the minimal effective concentration [1] was 1.11 µM and the minimal effective concentration [2] was greater than 30 µM.
`CC(=O)N(CCCCn1cnc2c(N)nc3ccccc3c21)Cc1cc(Br)ccc1O` [Example 122] showed a minimal effective concentration [1] of 3.33 µM and a minimal effective concentration [2] greater than 30 µM.
Molecule `CCCCOc1ccc(CN(CCCCn2cnc3c(N)nc4ccccc4c32)C(C)=O)cc1` [Example 123] has a minimal effective concentration [1] of 3.33 µM and a minimal effective concentration [2] greater than 30 µM.
For `CC(=O)N(CCCCn1cnc2c(N)nc3ccccc3c21)Cc1ccccc1Cl` [Example 124], the minimal effective concentration [1] was 1.11 µM and the minimal effective concentration [2] was 3.33 µM.
Molecule `CC(=O)N(CCCCn1cnc2c(N)nc3ccccc3c21)Cc1cc([N+](=O)[O-])ccc1Cl` [Example 125] has a minimal effective concentration [1] of 1.11 µM and a minimal effective concentration [2] greater than 30 µM.
`CC(=O)N(CCCCn1cnc2c(N)nc3ccccc3c21)Cc1cc(Cl)ccc1[N+](=O)[O-]` [Example 126] showed a minimal effective concentration [1] of 3.33 µM and a minimal effective concentration [2] greater than 30 µM.
`CC(=O)N(CCCCn1cnc2c(N)nc3ccccc3c21)Cc1ccccc1Sc1ccc(Cl)cc1` [Example 127] was tested, and the minimal effective concentration [1] was greater than 30 µM and the minimal effective concentration [2] was greater than 30 µM.
For `CC(=O)N(CCCCn1cnc2c(N)nc3ccccc3c21)Cc1cc(Cl)cc(Cl)c1` [Example 128], the minimal effective concentration [1] was 3.33 µM and the minimal effective concentration [2] was 1.11 µM.
`CC(=O)N(CCCCn1cnc2c(N)nc3ccccc3c21)Cc1ccc(F)c(F)c1` [Example 129] showed a minimal effective concentration [1] of 3.33 µM and a minimal effective concentration [2] greater than 30 µM.
Work on `COc1ccc(OC)c(CN(CCCCn2cnc3c(N)nc4ccccc4c32)C(C)=O)c1` [Example 130] yielded a minimal effective concentration [1] of 1.11 µM and a minimal effective concentration [2] of 10 µM.
In the case of `COc1cccc(CN(CCCCn2cnc3c(N)nc4ccccc4c32)C(C)=O)c1OC` [Example 131], the minimal effective concentration [1] is reported as 3.33 µM and the minimal effective concentration [2] is reported as greater than 30 µM.
In the case of `CC(=O)N(CCCCn1cnc2c(N)nc3ccccc3c21)Cc1ccc(C)cc1C` [Example 132], the minimal effective concentration [1] is reported as 1.11 µM and the minimal effective concentration [2] is reported as 3.33 µM.
`CCc1ccc(CN(CCCCn2cnc3c(N)nc4ccccc4c32)C(C)=O)o1` [Example 133] was tested, and the minimal effective concentration [1] was 3.33 µM and the minimal effective concentration [2] was greater than 30 µM.
Molecule `CC(=O)N(CCCCn1cnc2c(N)nc3ccccc3c21)Cc1ccco1` [Example 134] has a minimal effective concentration [1] of 0.37 µM and a minimal effective concentration [2] greater than 30 µM.
Molecule `CC(=O)N(CCCCn1cnc2c(N)nc3ccccc3c21)Cc1ccoc1` [Example 135] has a minimal effective concentration [1] of 0.12 µM and a minimal effective concentration [2] greater than 30 µM.
`CC(=O)N(CCCCn1cnc2c(N)nc3ccccc3c21)CCCc1ccccc1` [Example 136] was tested, and the minimal effective concentration [1] was 1.11 µM and the minimal effective concentration [2] was greater than 30 µM.
`CCCCCCCCN(CCCCn1cnc2c(N)nc3ccccc3c21)C(C)=O` [Example 137] was tested, and the minimal effective concentration [1] was 10 µM and the minimal effective concentration [2] was greater than 30 µM.
`CC(=O)N(CCCCn1cnc2c(N)nc3ccccc3c21)Cc1cccc2ccccc12` [Example 138] was tested, and the minimal effective concentration [1] was 1.11 µM and the minimal effective concentration [2] was greater than 30 µM.
For `COc1ccc2ccccc2c1CN(CCCCn1cnc2c(N)nc3ccccc3c21)C(C)=O` [Example 139], the minimal effective concentration [1] was greater than 30 µM and the minimal effective concentration [2] was greater than 30 µM.
With `CC(=O)N(CCCCn1cnc2c(N)nc3ccccc3c21)Cc1ccc([N+](=O)[O-])cc1` [Example 140] the minimal effective concentration [1] was 1.11 µM and the minimal effective concentration [2] was greater than 30 µM.
In the case of `CC(=O)N(CCCCn1cnc2c(N)nc3ccccc3c21)Cc1ccccc1[N+](=O)[O-]` [Example 141], the minimal effective concentration [1] is reported as 0.37 µM and the minimal effective concentration [2] is reported as greater than 30 µM.
`CC(=O)N(CCCCn1cnc2c(N)nc3ccccc3c21)Cc1ccncc1` [Example 143] showed a minimal effective concentration [1] of 0.12 µM and a minimal effective concentration [2] greater than 30 µM.
`CC(=O)N(CCCCn1cnc2c(N)nc3ccccc3c21)Cc1ccccc1C` [Example 144] gave a minimal effective concentration [1] of 1.11 µM and a minimal effective concentration [2] greater than 30 µM.
Work on `COc1ccc(CN(CCCCn2cnc3c(N)nc4ccccc4c32)C(C)=O)c(OC)c1OC` [Example 145] yielded a minimal effective concentration [1] of 1.11 µM and a minimal effective concentration [2] greater than 30 µM.
With `COc1cc(CN(CCCCn2cnc3c(N)nc4ccccc4c32)C(C)=O)cc(OC)c1OC` [Example 146] the minimal effective concentration [1] was 3.33 µM and the minimal effective concentration [2] was greater than 30 µM.
